“And” between values parts separate entries of the source, which are not always exact repeats. Identical values can stand only once.

For test [1], the system named is 1-octen-3-ol receptors OR2W1, Olfr93, Olfr120, Olfr398. The test can be described thus: Antagonists of 1-octen-3-ol receptors (Example 11). It is filed as cell-based, mouse and human. Set-up: Inhibition(%): concentration or dose not given beside the values. Conditions: Table 19.
The test system of test [2] is geonol receptors Olfr339, Olfr1487, Olfr1A1, OR11A1, Olfr96. The experiment in a line: Antagonists of geonol receptors (Example 11). It counts as cell-based, mouse and human. Also on record: Inhibition(%): concentration or dose not given beside the values. Conditions: Table 18.
The test system of test [3] is geonol earthy/moss odor perception. The experiment in a line: Human sensory performance of test compounds with and without geonol. It is filed as in vivo. The text has this: Sensory Evaluation: Five 16 oz glass jars containing either REF (geonol only), geonol only control, antagonist only, mixture of geonol and isointense antagonist, or mixture of geonol and low intensity antagonist were presented to the panelists (last four samples were randomized across panelists). The panelists were asked to familiarize themselves with the earthy/moss odor quality from the REF jar first, then rate the pleasantness, earthy/moss odor intensity and overall odor intensity of the next four samples on a 0-10 linear scale. The inter-stimulus interval between the samples was two minutes to avoid adaptation. […]
The results are shown in Tables 16 and 17, and FIGS. 3 to 5.

Test [4] concerns the target T1, OR51E1 olfactory receptor (Homo sapiens, UniProt Q8TCB6).
T1 construct: expressed in transfected cells
T1 sequence (Q8TCB6 1-318): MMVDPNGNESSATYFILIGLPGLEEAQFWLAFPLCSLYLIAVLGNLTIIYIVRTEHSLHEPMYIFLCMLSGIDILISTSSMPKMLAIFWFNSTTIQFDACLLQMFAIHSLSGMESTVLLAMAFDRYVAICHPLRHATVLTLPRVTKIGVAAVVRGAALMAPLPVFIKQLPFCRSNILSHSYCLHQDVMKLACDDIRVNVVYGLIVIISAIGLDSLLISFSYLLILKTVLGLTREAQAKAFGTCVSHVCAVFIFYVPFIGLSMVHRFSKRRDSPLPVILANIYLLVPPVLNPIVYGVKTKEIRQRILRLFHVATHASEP
The experiment in a line: Butyric acid olfactory receptor antagonist cell-based dose-response vs butyric acid EC80. The conditions noted are these: butyric acid at EC80; Table 5.

What is called IC50 is the midpoint of a concentration-inhibition curve. In the case of `CCC(O)COC1CCCCC1C(C)(C)C` (stereo not shown), in test [1], the IC50 turned out to be 53.6 µM and the “Inhibition(%)” value was 13%.

Regarding `CC(=O)c1c(C)c([N+](=O)[O-])c(C(C)(C)C)c([N+](=O)[O-])c1C`, in test [1], the IC50 is 84.7 µM and the “Inhibition(%)” value is 98%.

With `CC1CCC2C(C)(C)C3CC12CC1OC13C` (stereo not shown), in test [1], the IC50 was determined as 85.6 µM and the “Inhibition(%)” value is listed as 91%.

For `CC1COCc2cc3c(cc21)C(C)(C)C(C)C3(C)C` (stereo not shown), in test [2], the IC50 came out at 894 µM and the “Inhibition(%)” value was 56%. For the same compound, in test [1], it took 65.2 µM to reach half-maximal inhibition (IC50) and the “Inhibition(%)” value is listed as 84%.

With `CC1C2CC(CC13C=CC(=O)CC3)C2(C)C` (stereo not shown), in test [2], the IC50 amounted to 42.4 µM and the “Inhibition(%)” value is reported as 27%. In test [1], inhibition was half-maximal at 12.5 µM (IC50) and the “Inhibition(%)” value came out at 87%.

Consider `C[C@@H]1CC[C@]2(O)C(C)(C)[C@H]3CC[C@@]2(C)[C@@H]1C3`, for which the “% Earthy/Moss Odor Remaining” value in test [3] (Low Dilution Test Compound + Geonol (0.1%)) came out at 104.60%; in test [3] (Medium Dilution Test Compound + Geonol (0.1%)) it was 129.80%. Also, the “% Earthy/Moss Odor” value in test [3] (Test Compound Only) worked out at 94.10%.

As to `CC1CCC2(O)C(C)(C)C3CCC2(C)C1C3` (stereo not shown), in test [2], it took 34.9 µM to reach half-maximal inhibition (IC50) and the “Inhibition(%)” value is 68%. For the same compound, in test [1], inhibition was half-maximal at 81 µM (IC50) and the “Inhibition(%)” value amounted to 70%.

Take `CC(=O)OC1(C)CCC23CC1C(C)(C)C2CCC3C` (stereo not shown): in test [1], inhibition was half-maximal at 72.6 µM (IC50) and the “Inhibition(%)” value is 52%.

Consider `C=C(C[C@H](C)CO)[C@H]1CC=C(C)C1(C)C`, for which the IC50 in test [2] is 36.6 µM; in test [1] it was 54.6 µM. The “Inhibition(%)” value in test [2] was 33%; in test [1], 27%.

Turning to `CC1(C)CCCC2(C)C1CCC1(C)OCCC12` (stereo not shown), in test [2], it took 27.1 µM to reach half-maximal inhibition (IC50) and the “Inhibition(%)” value was 78%. For the same compound, in test [1], half-maximal inhibition (IC50) required 101 µM and the “Inhibition(%)” value is given as 105%.

Take `Cc1cc2c(cc1C=O)C(C)(C)[C@H](C)[C@@H](C)C2(C)C`: in test [1], the concentration for half-maximal inhibition (IC50) turned out to be 83.7 µM and the “Inhibition(%)” value is given as 64%.

Turning to `CC(=O)O[C@@H]1C(C)(C)CCC[C@@]12CC=C(C)C[C@@H]2C`, the figures for the IC50 in test [2] and in test [4] were 267 µM and 37.7 µM, respectively. Also, the “Inhibition(%)” value in test [2] is given as 38%.

For the compound “1-(2,2-dimethyl-6-methylidenecyclohexyl)pent-1-en-3-one; 3-methyl-4-(2,6,6-trimethylcyclohex-2-en-1-yl)but-3-en-2-one; 1-(2,6,6-trimethylcyclohexen-1-yl)pent-1-en-3-one; 1-(2,6,6-trimethylcyclohex-2-en-1-yl)pent-1-en-3-one”, in test [2], half-maximal inhibition (IC50) required 136 µM and the “Inhibition(%)” value is reported as 49%. In addition, in test [1], the IC50 was determined as 66.8 µM and the “Inhibition(%)” value turned out to be 56%.

“1-(2,6,6-trimethylcyclohexen-1-yl)hepta-1,6-dien-3-one; 1-(2,6,6-trimethylcyclohex-2-en-1-yl)hepta-1,6-dien-3-one”: the IC50 in test [2] turned out to be 49.1 µM; in test [1] it was 35.9 µM; in test [4] it was 100 µM. Further, the “Inhibition(%)” value is reported as 66% in test [2] and 49% in test [1].

`CC(=O)/C=C/C1C(C)=CCCC1(C)C` (racemic) [(+−)-(3E)-4-(2,6,6-trimethyl-2-cyclohexen-1-yl)-3-buten-2-one]: in test [1], the IC50 was 462 µM and the “Inhibition(%)” value was 79%.

For the compound `O=C1CCCCCCCCCCCC(=O)OCCO1` [1,4-dioxacycloheptadecane-5,17-dione], in test [2], 31.7 µM corresponded to half-maximal inhibition (IC50) and the “Inhibition(%)” value stood at 21%. Besides, in test [1], the IC50 turned out to be 39.3 µM and the “Inhibition(%)” value was found to be 38%.

In the case of `CC=CC(=O)C1=C(C)C=CCC1(C)C` [1-(2,6,6-trimethylcyclohexa-1,3-dien-1-yl)but-2-en-1-one], in test [2], the IC50 turned out to be 129 µM and the “Inhibition(%)” value is 35%.

Take `CC=CC(=O)C1=C(C)CCCC1(C)C` [1-(2,6,6-trimethylcyclohexen-1-yl)but-2-en-1-one]: in test [1], the concentration for half-maximal inhibition (IC50) was 477 µM and the “Inhibition(%)” value was 72%.

Regarding `CC(CCCC(C)(C)O)CC(O)n1ccc2ccccc21` (stereo not shown) [1-indol-1-yl-3,7-dimethyloctane-1,7-diol], in test [2], half-maximal inhibition (IC50) required 201 µM and the “Inhibition(%)” value came out at 46%. In addition, in test [1], inhibition was half-maximal at 175 µM (IC50) and the “Inhibition(%)” value was found to be 46%.

Take `C=C1C2CCC(C2)C1(C)C` (stereo not shown) [2,2-dimethyl-3-methylidenebicyclo[2.2.1]heptane]: in test [2], the concentration for half-maximal inhibition (IC50) stood at 219 µM and the “Inhibition(%)” value amounted to 36%.

As for `CCCOC(C)OCCc1ccccc1` (stereo not shown) [2-(1-propoxyethoxy)ethylbenzene], in test [2], 190 µM corresponded to half-maximal inhibition (IC50) and the “Inhibition(%)” value is given as 61%.

Consider `CC(C)CCOCCc1ccccc1` [2-(3-methylbutoxy)ethylbenzene], for which, in test [2], the IC50 amounted to 126 µM and the “Inhibition(%)” value is 22%.

As to `c1ccc(CCCc2ccccn2)cc1` [2-(3-phenylpropyl)pyridine], in test [2], the IC50 turned out to be 41 µM and the “Inhibition(%)” value came to 196%. For the same compound, in test [1], the midpoint of inhibition, the IC50, lay at 153 µM and the “Inhibition(%)” value came out at 31%.

Consider `CCC(=CCC1CC=C(C)C1(C)C)CO` (stereo not shown) [2-ethyl-4-(2,2,3-trimethylcyclopent-3-en-1-yl)but-2-en-1-ol], for which, in test [2], half-maximal inhibition (IC50) required 173 µM and the “Inhibition(%)” value is listed as 35%.

Turning to `CCC(=CCC1CC=C(C)C1(C)C)CO` (stereo not shown) [2-ethyl-4-[1~{S})-2,2,3-trimethylcyclopent-3-en-1-yl]but-2-e], in test [2], the IC50 is 44.6 µM and the “Inhibition(%)” value is 19%.

Take `CC(C)COC(=O)Cc1ccccc1` [2-methylpropyl 2-phenylacetate]: in test [2], it took 141 µM to reach half-maximal inhibition (IC50) and the “Inhibition(%)” value worked out at 45%.

Turning to `C=CC(C)(CCC=C(C)C)OC(=O)C(C)C` (stereo not shown) [3,7-dimethylocta-1,6-dien-3-yl 2-methylpropanoate], in test [1], the IC50 was 57.1 µM and the “Inhibition(%)” value is given as 88%.

With `CC(C)=CCCC(C)=CCO` [3,7-dimethylocta-2,6-dien-1-ol], in test [1], inhibition was half-maximal at 190 µM (IC50) and the “Inhibition(%)” value is on record as 18%.

As for `CC(C)(C)Cc1cccnc1` [3-(2,2-dimethylpropyl)pyridine], in test [1], the half-maximal inhibitory concentration (IC50) came out at 117 µM and the “Inhibition(%)” value came to 25%.

As for `CC1C2CC(CC2C2CCCC(O)C2)C1(C)C` (stereo not shown) [3-(5,5,6-trimethyl-2-bicyclo[2.2.1]heptanyl)cyclohexan-1-ol], in test [2], the IC50 was determined as 100 µM and the “Inhibition(%)” value worked out at 29%.

On to `CC(=O)C(C)=CC1C(C)=CCCC1(C)C` (stereo not shown) [3-methyl-4-(2,6,6-trimethylcyclohex-2-en-1-yl)but-3-en-2-one], for which, in test [2], the half-inhibitory concentration (IC50) was 110 µM and the “Inhibition(%)” value is 58%. In addition, in test [1], the IC50 turned out to be 120 µM and the “Inhibition(%)” value stood at 37%.

In the case of `CC1=CCC(CCC(C)C(C)O)C1(C)C` (stereo not shown) [3-methyl-5-(2,2,3-trimethylcyclopent-3-en-1-yl)pentan-2-ol], in test [2], the IC50 was 28.8 µM and the “Inhibition(%)” value is listed as 32%.

As for `CC(CCO)CCc1ccccc1` (stereo not shown) [3-methyl-5-phenylpentan-1-ol], in test [2], the IC50 was determined as 1100 µM and the “Inhibition(%)” value was 37%.

Turning to `CC(=O)C=CC1=C(C)CCC(C)C1(C)C` (stereo not shown) [4-(2,5,6,6-tetramethylcyclohexen-1-yl)but-3-en-2-one], in test [1], the IC50 came to 72.7 µM and the “Inhibition(%)” value worked out at 23%.

For `CC(C)CC(O)Cc1ccccc1` (stereo not shown) [4-methyl-1-phenylpentan-2-ol], in test [2], inhibition was half-maximal at 517 µM (IC50) and the “Inhibition(%)” value was 36%.

For `CCCCCCCC1CCCC(=O)O1` (stereo not shown) [6-heptyloxan-2-one], in test [2], the IC50 amounted to 197 µM and the “Inhibition(%)” value is recorded as 29%.

Take `CCCCC[C@H]1CCC[C@H]1O` [(1~{R},2~{S})-2-pentylcyclopentan-1-ol]: the IC50 in test [2] is 195 µM and 147 µM.

Turning to `C[C@@H]1CC=CCCCCCCCCCC(=O)C1` [(3~{R})-3-methylcyclopentadec-5-en-1-one], in test [1], the IC50 is 23.4 µM and the “Inhibition(%)” value was found to be 79%. In test [4], this compound yielded an IC50 of 53.7 µM.

`CC(=O)OC1CCC(C(C)(C)C)CC1` (stereo not shown) [(4-{tert}-butylcyclohexyl) acetate]: in test [1], the IC50 worked out at 93.8 µM and the “Inhibition(%)” value was determined as 79%.

As for `CC(C)CC(=O)OCc1ccccc1` [benzyl 3-methylbutanoate], in test [2], the IC50 stood at 220 µM and the “Inhibition(%)” value came to 41%.

Regarding `CCCCCCCC=CC=O` [dec-2-enal], in test [2], the IC50 was 262 µM and the “Inhibition(%)” value was determined as 40%.

Regarding `CCOC(=O)c1ccccc1C(=O)OCC` [diethyl benzene-1,2-dicarboxylate], in test [2], it took 1580 µM to reach half-maximal inhibition (IC50) and the “Inhibition(%)” value turned out to be 32%.

As to `COC(=O)c1ccccc1NC=CC(C)CCCC(C)(C)O` (stereo not shown) [methyl 2-[(7-hydroxy-3,7-dimethyloct-1-enyl)amino]benzoate], in test [2], the IC50 is 213 µM and the “Inhibition(%)” value is listed as 103%.

`COC(=O)CCCCCCCC/C=C/C=O` [methyl (10E)-12-oxo-10-dodecenoate]: the “Inhibition(%)” value in test [2] turned out to be 86%.
